17 compounds from patent US11306087B2, “Inhibitors of KRAS G12C and methods of using the same” (Amgen Inc., priority 2017, dated 2022) can be followed below.

Experiment [1] addresses GDP-bound KRAS protein (aa 1-169), containing both G12C and C118A amino acid substitutions (Homo sapiens (Human), UniProt P01116, C118A/G12C). Briefly: Coupled Nucleotide Exchange Assay. Format: biochemical. As to conditions: 5 min compound pre-incubation; inhibition of SOS-mediated nucleotide exchange; AlphaScreen. Here is the method: For compounds in Table 2, the following assay conditions were employed: Coupled Nucleotide Exchange Assay: Purified GDP-bound KRAS protein (aa 1-169), containing both G12C and C118A amino acid substitutions and an N-terminal His-tag, was pre-incubated with a compound dose-response titration for 5 min in assay buffer (25 mM HEPES pH 7.4, 10 mM MgCl2, and 0.01% Triton X-100). Following compound pre-incubation, purified SOS protein (aa 564-1049) and GTP (Roche 10106399001) were added to the assay wells and incubated for an additional 30 min. To determine the extent of inhibition of SOS-mediated nucleotide exchange, purified GST-tagged cRAF (aa 1-149), nickel chelate AlphaLISA acceptor beads (PerkinElmer AL108R), and AlphaScreen glutathione donor beads (PerkinElmer 6765302) were added to the assay wells and incubated for 5 minutes. The assay plates were then read on a PerkinElmer EnVision Multilabel Reader, using AlphaScreen® technology, and data were analyzed using a 4-parameter logistic model to calculate IC50 values.
Background: In Alpha technology, singlet oxygen from a donor bead excites a nearby acceptor bead.

Experiment [2] concerns Phosphorylation of ERK1/2 in MIA PaCa-2 cells. As to the kind of experiment: Phospho-ERK1/2 MSD Assay. The class given is cell-based. As to conditions: Homo sapiens, 2 hours compound treatment, 10 ng/mL EGF for 10 min, read-out: p-ERK IC50 (MIA PaCa-2). As for the experimental part: Phospho-ERK1/2 MSD Assay: MIA PaCa-2 (ATCC® CRL-1420™) and A549 (ATCC® CCL-185™) cells were cultured in RPMI 1640 Medium (ThermoFisher Scientific 11875093) containing 10% fetal bovine serum (ThermoFisher Scientific 16000044) and 1× penicillin-streptomycin-glutamine (ThermoFisher Scientific 10378016). Sixteen hours prior to compound treatment, MIA PaCa-2 or A549 cells were seeded in 96-well cell culture plates at a density of 25,000 cells/well and incubated at 37° C., 5% CO2. A compound dose-response titration was diluted in growth media, added to appropriate wells of a cell culture plate, and then incubated at 37° C., 5% CO2 for 2 hours. Following compound treatment, cells were stimulated with 10 ng/mL EGF (Roche 11376454001) for 10 min, washed with ice-cold Dulbecco's phosphate-buffered saline, no Ca^2+ or Mg^2+ (ThermoFisher Scientific 14190144), and then lysed in RIPA buffer (50 mM Tris-HCl pH 7.5, 1% Igepal, 0.5% sodium deoxycholate, 150 mM NaCl, and 0.5% sodium dodecyl sulfate) containing protease inhibitors (Roche 4693132001) and phosphatase inhibitors (Roche 4906837001). Phosphorylation of ERK1/2 in compound-treated lysates was assayed using Phospho-ERK1/2 Whole Cell Lysate kits (Meso Scale Discovery K151DWD) according to the manufacturer's protocol. Assay plates were read on a Meso Scale Discovery Sector Imager 6000, and data were analyzed using a 4-parameter logistic model to calculate IC50 values.

Chain of GDP-bound KRAS protein (aa 1-169), containing both G12C and C118A amino acid substitutions (P01116 other isoform, or with tags, fused parts or gaps G12C/C118A): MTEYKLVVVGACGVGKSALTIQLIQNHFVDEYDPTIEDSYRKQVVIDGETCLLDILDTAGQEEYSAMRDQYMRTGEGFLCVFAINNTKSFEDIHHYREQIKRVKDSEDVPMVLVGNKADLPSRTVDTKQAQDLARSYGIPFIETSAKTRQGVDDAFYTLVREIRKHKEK

Usually IC50 stands for the concentration that gives 50% inhibition. For `C=CC(=O)N1C[C@H](C)N(c2nc(=O)n(-c3c(C)ccnc3C(C)C)c3nc(-c4c(N)cccc4F)c(F)cc23)C[C@H]1C` [Example 6, 4-((2S,5R,M)-4-Acryloyl-2,5-dimethylpiperazin-1-yl)-7-(2-amino-6-fluorophenyl)-6-fluoro-1-(2-isopropyl-4-methylpyridin-3-yl)pyrido[2,3-d]pyrimidin-2(1H)-one], the figures for the IC50 in experiment [1] and in experiment [2] were 38 nM and 26 nM, respectively.

In the case of `C=CC(=O)N1[C@H](C)CN(c2nc(=O)n(-c3c(C)ccnc3C(C)C)c3nc(-c4c(O)cccc4F)c(Cl)cc23)C[C@@H]1C` (atropisomer, axis not shown; (M)) [Example 14, (M)-4-(4-Acryloyl-cis-3,5-dimethylpiperazin-1-yl)-6-chloro-7-(2-fluoro-6-hydroxyphenyl)-1-(2-isopropyl-4-methylpyridin-3-yl)pyrido[2,3-d]pyrimidin-2(1H)-one], the IC50 in experiment [1] amounted to 16 nM; in experiment [2] it was 35 nM.

As for `C=CC(=O)N1[C@H](C)CN(c2nc(=O)n(-c3c(C(C)C)ncnc3C(C)C)c3nc(-c4ccccc4F)c(Cl)cc23)C[C@@H]1C` [Example 19, 4-(4-Acryloyl-cis-3,5-dimethylpiperazin-1-yl)-6-chloro-1-(4,6-diisopropylpyrimidin-5-yl)-7-(2-fluorophenyl)pyrido[2,3-d]pyrimidin-2(1H)-one], the results for the IC50 in experiment [1] and in experiment [2] were 42 nM and 61 nM, respectively.

Regarding `C=CC(=O)N1[C@H](C)CN(c2nc(=O)n(-c3c(C(C)C)ncnc3C(C)C)c3nc(-c4c(N)cccc4F)c(F)cc23)C[C@@H]1C` [Example 24, 4-(4-Acryloyl-cis-3,5-dimethylpiperazin-1-yl)-7-(2-amino-6-fluorophenyl)-1-(4,6-diisopropylpyrimidin-5-yl)-6-fluoropyrido[2,3-d]pyrimidin-2(1H)-one], the IC50 in experiment [1] came to 396 nM.

`C=CC(=O)N1C[C@H](C)N(c2nc(=O)n(-c3c(C)ccnc3C(C)C)c3nc(-c4c(N)cccc4F)c(Cl)cc23)C[C@H]1C` [Example 3, 4-((2S,5R,M)-4-Acryloyl-2,5-dimethylpiperazin-1-yl)-7-(2-amino-6-fluorophenyl)-6-chloro-1-(2-isopropyl-4-methylpyridin-3-yl)pyrido[2,3-d]pyrimidin-2(1H)-one]: the IC50 turned out to be 13 nM in experiment [1] and 9 nM in experiment [2].

For the compound `C=CC(=O)N1C[C@H](C)N(c2nc(=O)n(-c3c(C(C)C)ncnc3C(C)C)c3nc(-c4c(N)cccc4F)c(F)cc23)C[C@H]1C` [Example 12, 4-((2S,5R)-4-Acryloyl-2,5-dimethylpiperazin-1-yl)-7-(2-amino-6-fluorophenyl)-1-(4,6-diisopropylpyrimidin-5-yl)-6-fluoropyrido[2,3-d]pyrimidin-2(1H)-one], the IC50 was 214 nM in experiment [1] and 88 nM in experiment [2].

With `C=CC(=O)N1[C@H](C)CN(c2nc(=O)n(-c3c(C)ccnc3C(C)C)c3nc(-c4c(O)cccc4F)c(F)cc23)C[C@@H]1C` (atropisomer, axis not shown; (M)) [Example 17, (M)-4-(4-Acryloyl-cis-3,5-dimethylpiperazin-1-yl)-6-fluoro-7-(2-fluoro-6-hydroxyphenyl)-1-(2-isopropyl-4-methylpyridin-3-yl)pyrido[2,3-d]pyrimidin-2(1H)-one], the IC50 in experiment [1] was 117 nM; in experiment [2], 105 nM.

Consider `C=CC(=O)N1C[C@H](C)N(c2nc(=O)n(-c3c(C)ccnc3C(C)C)c3nc(-c4c(O)cccc4F)c(Cl)cc23)C[C@H]1C` [Example 2, 4-((2S,5R,M)-4-Acryloyl-2,5-dimethylpiperazin-1-yl)-6-chloro-7-(2-fluoro-6-hydroxyphenyl)-1-(2-isopropyl-4-methylpyridin-3-yl)pyrido[2,3-d]pyrimidin-2(1H)-one], for which the IC50 was determined as 27 nM in experiment [1] and 16 nM in experiment [2].

Consider `C=CC(=O)N1C[C@H](C)N(c2nc(=O)n(-c3c(C)ccnc3C(C)C)c3nc(-c4ccccc4F)c(F)cc23)C[C@H]1C` [Example 4, 4-((2S,5R,M)-4-Acryloyl-2,5-dimethylpiperazin-1-yl)-6-fluoro-7-(2-fluorophenyl)-1-(2-isopropyl-4-methylpyridin-3-yl)pyrido[2,3-d]pyrimidin-2(1H)-one], for which the figures for the IC50 in experiment [1] and in experiment [2] were 206 nM and 102 nM, respectively.

Take `C=CC(=O)N1C[C@H](C)N(c2nc(=O)n(-c3c(C(C)C)ncnc3C(C)C)c3nc(-c4c(O)cccc4F)c(F)cc23)C[C@H]1C` [Example 11, 4-((2S,5R)-4-Acryloyl-2,5-dimethylpiperazin-1-yl)-1-(4,6-diisopropylpyrimidin-5-yl)-6-fluoro-7-(2-fluoro-6-hydroxyphenyl)pyrido[2,3-d]pyrimidin-2(1H)-one]: the IC50 in experiment [1] was 136 nM; in experiment [2], 103 nM.

Consider `C=CC(=O)N1C[C@H](C)N(c2nc(=O)n(-c3c(C)ccnc3C(C)C)c3nc(-c4c(O)cccc4F)c(F)cc23)C[C@H]1C` [Example 5, 4-((2S,5R,M)-4-Acryloyl-2,5-dimethylpiperazin-1-yl)-6-fluoro-7-(2-fluoro-6-hydroxyphenyl)-1-(2-isopropyl-4-methylpyridin-3-yl)pyrido[2,3-d]pyrimidin-2(1H)-one], for which the IC50 came to 79 nM in experiment [1] and 46 nM in experiment [2].

For `C=CC(=O)N1[C@H](C)CN(c2nc(=O)n(-c3c(C(C)C)ncnc3C(C)C)c3nc(-c4c(N)cccc4F)c(Cl)cc23)C[C@@H]1C` [Example 21, 4-(4-Acryloyl-cis-3,5-dimethylpiperazin-1-yl)-7-(2-amino-6-fluorophenyl)-6-chloro-1-(4,6-diisopropylpyrimidin-5-yl)pyrido[2,3-d]pyrimidin-2(1H)-one], the IC50 in experiment [1] stood at 92 nM; in experiment [2] it was 36 nM.

With `C=CC(=O)N1[C@H](C)CN(c2nc(=O)n(-c3c(C(C)C)ncnc3C(C)C)c3nc(-c4c(O)cccc4F)c(Cl)cc23)C[C@@H]1C` [Example 20, 4-(4-Acryloyl-cis-3,5-dimethylpiperazin-1-yl)-6-chloro-1-(4,6-diisopropylpyrimidin-5-yl)-7-(2-fluoro-6-hydroxyphenyl)pyrido[2,3-d]pyrimidin-2(1H)-one], the values for the 50% inhibitory concentration (IC50) in experiment [1] and in experiment [2] were 34 nM and 22 nM, respectively.

As for `C=CC(=O)N1C[C@H](C)N(c2nc(=O)n(-c3c(C(C)C)ncnc3C(C)C)c3nc(-c4ccccc4F)c(Cl)cc23)C[C@H]1C` [Example 7, 4-((2S,5R)-4-Acryloyl-2,5-dimethylpiperazin-1-yl)-6-chloro-1-(4,6-diisopropylpyrimidin-5-yl)-7-(2-fluorophenyl)pyrido[2,3-d]pyrimidin-2(1H)-one], the figures for the IC50 in experiment [1] and in experiment [2] were 49 nM and 26 nM, respectively.

In experiment [1], `C=CC(=O)N1[C@H](C)CN(c2nc(=O)n(-c3c(C)ccnc3C(C)C)c3nc(-c4ccccc4F)c(F)cc23)C[C@@H]1C` (atropisomer, axis not shown; (M)) [Example 16, (M)-4-(4-Acryloyl-cis-3,5-dimethylpiperazin-1-yl)-6-fluoro-7-(2-fluorophenyl)-1-(2-isopropyl-4-methylpyridin-3-yl)pyrido[2,3-d]pyrimidin-2(1H)-one] came in with a 50% inhibitory concentration (IC50) of 512 nM.

On to `C=CC(=O)N1[C@H](C)CN(c2nc(=O)n(-c3c(C)ccnc3C(C)C)c3nc(-c4c(N)cccc4F)c(Cl)cc23)C[C@@H]1C` (atropisomer, axis not shown; (M)) [Example 15, (M)-4-(4-Acryloyl-cis-3,5-dimethylpiperazin-1-yl)-7-(2-amino-6-fluorophenyl)-6-chloro-1-(2-isopropyl-4-methylpyridin-3-yl)pyrido[2,3-d]pyrimidin-2(1H)-one], for which, in experiment [2], the IC50 is 15 nM.

Regarding `C=CC(=O)N1[C@H](C)CN(c2nc(=O)n(-c3c(C(C)C)ncnc3C(C)C)c3nc(-c4ccccc4F)c(F)cc23)C[C@@H]1C` [Example 22, 4-(4-Acryloyl-cis-3,5-dimethylpiperazin-1-yl)-1-(4,6-diisopropylpyrimidin-5-yl)-6-fluoro-7-(2-fluorophenyl)pyrido[2,3-d]pyrimidin-2(1H)-one], the half-inhibitory concentration (IC50) in experiment [1] turned out to be 560 nM.
